The values below come from patent US10106515B2, “1-(cyclopent-2-en-1-yl)-3-(2-hydroxy-3-(arylsulfonyl)phenyl)urea derivatives as CXCR2 inhibitors” (GLAXOSMITHKLINE INTELLECTUAL PROPERTY DEVELOPMENT LIMITED, priority 2014, dated 2018).

The structures appear in SMILES notation. Structures can show the parent of a compound that is named as a salt.

One assay has as its target T1, recombinant human CXCR2 (Homo sapiens, UniProt P25025).
T1 construct: TEV protease site; Gal4-VP16 transcription factor
T1 sequence (P25025 1-360): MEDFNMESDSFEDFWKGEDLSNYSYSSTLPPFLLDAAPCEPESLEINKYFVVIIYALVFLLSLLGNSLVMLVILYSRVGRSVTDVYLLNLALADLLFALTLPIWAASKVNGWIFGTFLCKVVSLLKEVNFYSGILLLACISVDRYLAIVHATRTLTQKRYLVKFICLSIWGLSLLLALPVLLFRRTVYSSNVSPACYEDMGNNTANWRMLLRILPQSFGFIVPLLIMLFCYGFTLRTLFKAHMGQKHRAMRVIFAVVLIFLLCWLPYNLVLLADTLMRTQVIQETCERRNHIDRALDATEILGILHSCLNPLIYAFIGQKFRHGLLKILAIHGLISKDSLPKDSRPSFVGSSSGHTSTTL
The assay is described as follows: CXCR2 Tango assay. In kind it is cell-based. The settings on record: mean pIC50 of multiple test results; stimulated with 80 nM hCXCL1; reporter gene blue/green emission ratio; read-out: pIC50 (CXCR2 Tango assay) (converted). The method in brief:
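Mean pIC50 comes from sigmoidal fits of the blue/green (460/530 nm) CCF4-AM ratio, normalized between hCXCL1-stimulated and DMSO controls. Compounds in 10-point dose response were incubated overnight at 37 °C with recombinant human CXCR2 Tango cells (~10,000/well) and 80 nM hCXCL1, with reporter read-out via arrestin-TEV release of Gal4-VP16.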
(A reporter such as luciferase makes a cellular process visible.)
For `CC1=CCCC1NC(=O)Nc1ccc(Cl)c(S(=O)(=O)C(C)c2ncccn2)c1O` (stereo not shown) [Compound 29, 1-(4-chloro-2-hydroxy-3-((1-(pyrimidin-2-yl)ethyl)sulfonyl)phenyl)-3-(2-methylcyclopent-2-en-1-yl)urea, trifluoroacetic acid salt], the IC50 is ≤ 10 nM.
For `COC1CCCCC1S(=O)(=O)c1c(Cl)ccc(NC(=O)NC2CCC=C2C)c1O` (racemic) [Compound 150, (±)trans-1-(4-chloro-2-hydroxy-3-((2-methoxycyclohex-yl)sulfonyl)phenyl)-3-((R)-2-methylcyclopent-2-en-1-yl)urea], the IC50 was ≤ 10 nM.
On to `CN(C)C[C@H]1C[C@@H](S(=O)(=O)c2c(Cl)ccc(NC(=O)NC3CCC=C3Cl)c2O)C1` (stereo partly drawn) [Compound 132, 1-(4-chloro-3-((cis-3-((dimethylamino)methyl)cyclobutyl)sulfonyl)-2-hydroxyphenyl)-3-(2-chlorocyclopent-2-en-1-yl)urea, trifluoroacetic acid salt], for which the IC50 was ≤ 10 nM.
`CC1=CCC[C@H]1NC(=O)Nc1ccc(Cl)c(S(=O)(=O)N2CCC(O)CC2)c1O` [Compound 89, (R)-1-(4-chloro-2-hydroxy-3-((4-hydroxypiperidin-1-yl)sulfonyl)phenyl)-3-(2-methylcyclopent-2-en-1-yl)urea]: the IC50 is ≤ 1 nM.
`CC1=CCC[C@H]1NC(=O)Nc1ccc(Cl)c(S(=O)(=O)C(F)(F)c2ccccn2)c1O` [Compound 63, (R)-1-(4-chloro-3-((difluoro(pyridin-2-yl)methyl)sulfonyl)-2-hydroxyphenyl)-3-(2-methylcyclopent-2-en-1-yl)urea, trifluoroacetic acid salt]: the IC50 is ≤ 1 nM.
Still for that read-out and setting: the result for `CC1=CCC[C@H]1NC(=O)Nc1ccc(Cl)c(S(=O)(=O)C2(C)CC3(COC3)C2)c1O` [Compound 65, (R)-1-(4-chloro-2-hydroxy-3-((6-methyl-2-oxaspiro[3.3]heptan-6-yl)sulfonyl)phenyl)-3-(2-methylcyclopent-2-en-1-yl)urea] reads ≤ 10 nM; that for `CC1=CCCC1NC(=O)Nc1ccc(Cl)c(S(=O)(=O)C(C)(C)C2CCOCC2)c1O` (stereo not shown) [Compound 103, 1-(4-chloro-2-hydroxy-3-((2-(tetrahydro-2H-pyran-4-yl)propan-2-yl)sulfonyl)phenyl)-3-(2-methylcyclopent-2-en-1-yl)urea], ≤ 10 nM.
For `CC1=CCCC1NC(=O)Nc1ccc(Cl)c(S(=O)(=O)[C@H]2CC[C@@H](N(C)C)CC2)c1O` (stereo partly shown) [Compound 129, 1-(4-chloro-3-(((1s,4s)-4-(dimethylamino)cyclohexyl)sulfonyl)-2-hydroxyphenyl)-3-(2-methylcyclopent-2-en-1-yl)urea, trifluoroacetic acid salt], the IC50 was ≤ 1 nM.
Take `O=C(Nc1ccc(Cl)c(S(=O)(=O)[C@H]2CC[C@H](N3CCC3)CC2)c1O)NC1CCC=C1Cl` (stereo partly drawn) [Compound 178, 1-(3-((trans-4-(azetidin-1-yl)cyclohexyl)sul-fonyl)-4-chloro-2-hydroxyphenyl)-3-(2-chlorocyclopent-2-en-1-yl)urea, trifluoroacetic acid salt]: the IC50 is ≤ 10 nM.
Still for that read-out and setting: next, `CC1=CCCC1NC(=O)Nc1ccc(Cl)c(S(=O)(=O)N2CCCC2)c1O` (stereo not shown) [Compound 116, 1-(4-chloro-2-hydroxy-3-(pyrrolidin-1-ylsulfonyl)phenyl)-3-(2-methylcyclopent-2-en-1-yl)urea]: ≤ 10 nM; `CC1=CCCC1NC(=O)Nc1ccc(Cl)c(S(=O)(=O)C(C)(C)c2ccccn2)c1O` (stereo not shown) [Compound 102, 1-(4-chloro-2-hydroxy-3-((2-(pyridin-2-yl)propan-2-yl)sulfonyl)phenyl)-3-(2-methylcyclopent-2-en-1-yl)urea, trifluoroacetic acid salt]: ≤ 10 nM; `CC1=CCC[C@H]1NC(=O)Nc1ccc(Cl)c(S(=O)(=O)C(C)(C)[C@@H]2CCOC2)c1O` [Compound 55, 1-(4-chloro-2-hydroxy-3-((2-((R)-tetrahydrofuran-3-yl)propan-2-yl)sulfonyl)phenyl)-3-((R)-2-methylcyclopent-2-en-1-yl)urea]: ≤ 10 nM.
With `CC(C)(F)S(=O)(=O)c1c(Cl)ccc(NC(=O)NC2CCC=C2Cl)c1O` (stereo not shown) [Compound 15, 1-(4-chloro-3-((2-fluoropropan-2-yl)sulfonyl)-2-hydroxyphenyl)-3-(2-chlorocyclopent-2-en-1-yl)urea], the IC50 is ≤ 10 nM.
For `CC1=CCCC1NC(=O)Nc1ccc(Cl)c(S(=O)(=O)C2CCc3nccn3C2)c1O` (stereo not shown) [Compound 108, 1-(4-chloro-2-hydroxy-3-((5,6,7,8-etrahydroimidazo [1,2-a]pyridin-6-yl)sulfonyl)phenyl)-3-(2-methylcyclopent-2-en-1-yl)urea, trifluoroacetic acid salt], the IC50 was ≤ 10 nM.
Turning to `CCC1=CCCC1NC(=O)Nc1ccc(Cl)c(S(=O)(=O)C(C)C)c1O` (stereo not shown) [Compound 120, 1-(4-chloro-2-hydroxy-3-(isopropylsulfonyl)phenyl)-3-(2-ethylcyclopent-2-en-1-yl)urea], the IC50 is ≤ 10 nM.
Same read-out and setting: the result for `[2H]C1(S(=O)(=O)c2c(Cl)ccc(NC(=O)N[C@@H]3CCC=C3C)c2O)CCN(C2CCC2)CC1` [Compound 81, (R)-1-(4-chloro-3-((1-cyclobutylpiperidin-4-yl)sulfonyl)-2-hydroxyphenyl)-3-(2-methylcyclopent-2-en-1-yl)urea-d1, trifluoroacetic acid salt] reads ≤ 1 nM; that for `CC(C)S(=O)(=O)c1c(Cl)ccc(NC(=O)NC2CCC=C2Cl)c1O` (stereo not shown) [Compound 21, 1-(4-chloro-2-hydroxy-3-(isopropylsulfonyl)phenyl)-3-(2-chlorocyclopent-2-en-1-yl)urea], ≤ 1 nM.
`CC1=CCCC1NC(=O)Nc1ccc(Cl)c(S(=O)(=O)[C@H]2C[C@H](CN(C)C)C2)c1O` (stereo partly shown) [Compound 131, 1-(4-chloro-3-(((1r,3r)-3-((dimethylamino)methyl)cyclobutyl)sulfonyl)-2-hydroxyphenyl)-3-(2-methylcyclopent-2-en-1-yl)urea, trifluoroacetic acid salt]: the IC50 was ≤ 10 nM.
As to `O=C(Nc1ccc(Cl)c(S(=O)(=O)[C@H]2C[C@H](N3CCCC3)C2)c1O)NC1CCC=C1Cl` (stereo partly drawn) [Compound 177, 1-(4-chloro-2-hydroxy-3-((trans-3-(pyrrolidin-1-yl)cyclobutyl)sul-fonyl)phenyl)-3-(2-chlorocyclopent-2-en-1-yl)urea, trifluoroacetic acid salt], the IC50 is ≤ 10 nM.
Regarding `O=C(Nc1ccc(Cl)c(S(=O)(=O)[C@H]2CCOC2)c1O)NC1C=CCC1` (stereo partly drawn) [Compound 175, 1-(4-chloro-2-hydroxy-3-(((S)-tetrahydrofuran-3-yl)sulfonyl)phenyl)-3-(cyclopent-2-en-1-yl)urea], the IC50 is ≤ 10 nM.
As for `CC1=CCC[C@H]1NC(=O)Nc1ccc(Cl)c(S(=O)(=O)C2CCN(CC(F)F)CC2)c1O` [Compound 80, (R)-1-(4-chloro-3-((1-(2,2-difluoroethyl)piper-idin-4-yl)sulfonyl)-2-hydroxyphenyl)-3-(2-methylcyclopent-2-en-1-yl)urea trifluoroacetic acid salt], the IC50 was ≤ 10 nM.
As to `CC(C)S(=O)(=O)c1c(Cl)ccc(NC(=O)NC2C=CCC2)c1O` (stereo not shown) [Compound 18, 1-(4-chloro-2-hydroxy-3-(isopropylsulfonyl)phenyl)-3-(cyclopent-2-en-1-yl)urea], the IC50 was ≤ 10 nM.
Regarding `CC1=CCCC1NC(=O)Nc1ccc(Cl)c(S(=O)(=O)N2CCn3ccnc3C2)c1O` (stereo not shown) [Compound 117, 1-(4-chloro-3-((5,6-dihydroimidazo [1,2-a]pyrazin-7(8H)-yl)sulfonyl)-2-hydroxyphenyl)-3-(2-methylcyclopent-2-en-1-yl)urea], the IC50 is ≤ 10 nM.
In the case of `O=C(Nc1ccc(Cl)c(S(=O)(=O)C2CCOCC2)c1O)NC1C=CCC1` (stereo not shown) [Compound 176, 1-(4-chloro-2-hydroxy-3-((tetrahydro-2H-pyran-4-yl)sulfonyl)phenyl)-3-(cyclopent-2-en-1-yl)urea], the IC50 was ≤ 10 nM.

Still in this assay, the particulars now being: pIC50 (CXCR2 Tango assay), mean pIC50 of multiple test results; stimulated with 80 nM hCXCL1; reporter gene blue/green emission ratio.
For the compound `CC1=CCC[C@H]1NC(=O)Nc1ccc(Cl)c(S(=O)(=O)C2CCN(C3CCC3)CC2)c1O` [Compound 83, (R)-1-(4-chloro-3-((1-cyclobutylpiperidin-4-yl)sulfonyl)-2-hydroxyphenyl)-3-(2-methylcyclopent-2-en-1-yl)urea trifluoroacetic acid salt], the IC50 is ≤ 1 nM.
